Reference: PubChem BioAssay AID1918956 (Molecular Pharmacology Branch, DTP, NCI, 2023)

Tested on: OVCAR-5 complex spheroids, viability
Test: Anticancer human tumor OVCAR-5 cell line growth inhibition;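 further: spheroids exposed to agents for seven days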;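 on viability, T/C: 100% = DMSO vehicle control wells viability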
Details: for IC50: curve of first compound; for viability, T/C: stronger effect = lower value
How it was run: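 Drug combinations with the LSD1 inhibitor iadademstat tested on tumor cells co-cultured as spheroids with endothelial cells and mesenchymal stem cells. Concentrations descended in half-log increments from clinical Cmax or 10 microM.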

[1] = second compound 0.1 µM, first compound 0.000316 µM
[2] = second compound 0.1 µM, first compound 0.001 µM
[3] = second compound 0.1 µM, first compound 0.00316 µM
[4] = second compound 0.1 µM, first compound 0.01 µM
[5] = second compound 0.1 µM, first compound 0.0316 µM
[6] = second compound 0.1 µM, first compound 0.1 µM
[7] = second compound 0.316 µM, first compound 0.000316 µM
[8] = second compound 0.316 µM, first compound 0.001 µM
[9] = second compound 0.316 µM, first compound 0.00316 µM
[10] = second compound 0.316 µM, first compound 0.01 µM
[11] = second compound 0.316 µM, first compound 0.0316 µM
[12] = second compound 0.316 µM, first compound 0.1 µM
[13] = second compound 1 µM, first compound 0.000316 µM
[14] = second compound 1 µM, first compound 0.001 µM
[15] = second compound 1 µM, first compound 0.00316 µM
[16] = second compound 1 µM, first compound 0.01 µM
[17] = second compound 1 µM, first compound 0.0316 µM
[18] = second compound 1 µM, first compound 0.1 µM
[19] = second compound 3.16 µM, first compound 0.000316 µM
[20] = second compound 3.16 µM, first compound 0.001 µM
[21] = second compound 3.16 µM, first compound 0.00316 µM
[22] = second compound 3.16 µM, first compound 0.01 µM
[23] = second compound 3.16 µM, first compound 0.0316 µM
[24] = second compound 3.16 µM, first compound 0.1 µM
[25] = second compound 10 µM, first compound 0.000316 µM
[26] = second compound 10 µM, first compound 0.001 µM
[27] = second compound 10 µM, first compound 0.00316 µM
[28] = second compound 10 µM, first compound 0.01 µM
[29] = second compound 10 µM, first compound 0.0316 µM
[30] = second compound 10 µM, first compound 0.1 µM

Row | SMILES | IC50 (second compound 0.1 µM) [nM] | IC50 (second compound 0.316 µM) [nM] | IC50 (second compound 1 µM) [nM] | IC50 (second compound 3.16 µM) [nM] | IC50 (second compound 10 µM) [nM] | viability, T/C [3] [%] | viability, T/C [4] [%] | viability, T/C [5] [%] | viability, T/C [6] [%] | viability, T/C [9] [%] | viability, T/C [10] [%] | viability, T/C [11] [%] | viability, T/C [12] [%] | viability, T/C [15] [%] | viability, T/C [16] [%] | viability, T/C [17] [%] | viability, T/C [18] [%] | viability, T/C [21] [%] | viability, T/C [22] [%] | viability, T/C [23] [%] | also measured
1 | CC(C)CC(NC(=O)C(Cc1ccccc1)NC(=O)c1cnccn1)B(O)O (stereo not given) + NC1CC1c1ccc(-c2cccc(O)c2)cc1 | 7.35 | 6.68 | 6.31 | 4.44 | 4.52 | 75.8 | 40.9 | 14.8 | 5.74 | 74.6 | 37.5 | 10.7 | 3.96 | 71.6 | 35 | 10.2 | 2.99 | 65.7 | 32.3 | 12.6 | viability, T/C [1]: 111%; viability, T/C [2]: 103%; viability, T/C [7]: 111%; viability, T/C [8]: 98.8%; viability, T/C [13]: 100%; viability, T/C [14]: 103%; viability, T/C [19]: 101%; viability, T/C [20]: 70.5%; viability, T/C [24]: 3.14%; viability, T/C [25]: 81%; viability, T/C [26]: 87%; viability, T/C [27]: 57.4%; viability, T/C [28]: 27.6%; viability, T/C [29]: 8.96%; viability, T/C [30]: 1.75%
2 | CC(C)CC(NC(=O)CNC(=O)c1cc(Cl)ccc1Cl)B1OC(=O)CC(CC(=O)O)(C(=O)O)O1 (stereo not given) + NC1CC1c1ccc(-c2cccc(O)c2)cc1 | > 100 | > 100 | > 100 | > 100 | 99.8 | 89.8 | 72.1 | 66.2 | 55 | 80.4 | 73.3 | 74.4 | 57.5 | 79.3 | 71.1 | 66.8 | 53.6 | 83.9 | 65.8 | 64.3 | viability, T/C [1]: 92.4%; viability, T/C [2]: 87%; viability, T/C [7]: 96.6%; viability, T/C [8]: 92.1%; viability, T/C [13]: 98%; viability, T/C [14]: 91.6%; viability, T/C [19]: 79.6%; viability, T/C [20]: 78.7%; viability, T/C [24]: 51.8%; viability, T/C [25]: 97.1%; viability, T/C [26]: 93.3%; viability, T/C [27]: 71.4%; viability, T/C [28]: 70.3%; viability, T/C [29]: 64.8%; viability, T/C [30]: 47%
3 | COc1cc(Nc2ncc3c(n2)-c2ccc(Cl)cc2C(c2c(F)cccc2OC)=NC3)ccc1C(=O)O + NC1CC1c1ccc(-c2cccc(O)c2)cc1 | 86.2 | 98.9 | 62.3 | 54.5 | 47.7 | 76.9 | 73.1 | 60.4 | 47.3 | 88.9 | 84.4 | 63.9 | 50.1 | 76.1 | 82.1 | 57.4 | 46.4 | 81.3 | 72 | 53.6 | viability, T/C (second compound 0.1 µM, first compound 0.316 µM): 47.1%; viability, T/C (second compound 0.1 µM, first compound 1 µM): 39.8%; viability, T/C (second compound 0.316 µM, first compound 0.316 µM): 49.6%; viability, T/C (second compound 0.316 µM, first compound 1 µM): 44.6%; viability, T/C (second compound 1 µM, first compound 0.316 µM): 47.8%; viability, T/C (second compound 1 µM, first compound 1 µM): 40.1%; viability, T/C [24]: 46.1%; viability, T/C (second compound 3.16 µM, first compound 0.316 µM): 44.3%; viability, T/C (second compound 3.16 µM, first compound 1 µM): 42.1%; viability, T/C [27]: 87.6%; viability, T/C [28]: 72%; viability, T/C [29]: 50.7%; viability, T/C [30]: 50.3%; viability, T/C (second compound 10 µM, first compound 0.316 µM): 49.7%; viability, T/C (second compound 10 µM, first compound 1 µM): 43.7%
